Source: BigSolDB 2.1

Oc1ccc([C@@H]2COc3cc(O)ccc3C2)cc1
solubility (mole fraction)
Conditions | in isobutanol | in isopentanol | in isopropanol | in n-butanol | in n-heptane | in n-pentanol
273.15 K | 0.0174 | 0.0226 | 0.0295 | 0.0242 | 0.000431 | 0.0235
278.15 K | 0.02 | 0.0261 | 0.035 | 0.0284 | 0.00049 | 0.0273
283.15 K | 0.0229 | 0.0301 | 0.0412 | 0.0331 | 0.000554 | 0.0317
288.15 K | 0.0261 | 0.0345 | 0.0482 | 0.0384 | 0.000624 | 0.0365
293.15 K | 0.0296 | 0.0394 | 0.0561 | 0.0442 | 0.000699 | 0.0419
298.15 K | 0.0334 | 0.0447 | 0.065 | 0.0508 | 0.000781 | 0.0478
303.15 K | 0.0376 | 0.0506 | 0.0749 | 0.0581 | 0.00087 | 0.0544
308.15 K | 0.0421 | 0.057 | 0.086 | 0.0661 | 0.000964 | 0.0616
313.15 K | 0.047 | 0.0639 | 0.0982 | 0.0749 | 0.00107 | 0.0695
318.15 K | 0.0523 | 0.0715 | 0.112 | 0.0846 | 0.00117 | 0.078
323.15 K | 0.058 | 0.0797 | 0.127 | 0.0951 | 0.00129 | 0.0874
328.15 K | 0.0641 | 0.0885 | 0.143 | 0.107 | 0.00141 | 0.0975
333.15 K | 0.0706 | 0.098 | 0.161 | 0.119 | 0.00155 | 0.108
